For orientation: IC50 means the concentration at which inhibition is half-maximal. A low value points to higher potency.

The target in this experiment is T1, angiotensin converting enzyme (Oryctolagus cuniculus, UniProt P12822).
T1 sequence (P12822 34-1310): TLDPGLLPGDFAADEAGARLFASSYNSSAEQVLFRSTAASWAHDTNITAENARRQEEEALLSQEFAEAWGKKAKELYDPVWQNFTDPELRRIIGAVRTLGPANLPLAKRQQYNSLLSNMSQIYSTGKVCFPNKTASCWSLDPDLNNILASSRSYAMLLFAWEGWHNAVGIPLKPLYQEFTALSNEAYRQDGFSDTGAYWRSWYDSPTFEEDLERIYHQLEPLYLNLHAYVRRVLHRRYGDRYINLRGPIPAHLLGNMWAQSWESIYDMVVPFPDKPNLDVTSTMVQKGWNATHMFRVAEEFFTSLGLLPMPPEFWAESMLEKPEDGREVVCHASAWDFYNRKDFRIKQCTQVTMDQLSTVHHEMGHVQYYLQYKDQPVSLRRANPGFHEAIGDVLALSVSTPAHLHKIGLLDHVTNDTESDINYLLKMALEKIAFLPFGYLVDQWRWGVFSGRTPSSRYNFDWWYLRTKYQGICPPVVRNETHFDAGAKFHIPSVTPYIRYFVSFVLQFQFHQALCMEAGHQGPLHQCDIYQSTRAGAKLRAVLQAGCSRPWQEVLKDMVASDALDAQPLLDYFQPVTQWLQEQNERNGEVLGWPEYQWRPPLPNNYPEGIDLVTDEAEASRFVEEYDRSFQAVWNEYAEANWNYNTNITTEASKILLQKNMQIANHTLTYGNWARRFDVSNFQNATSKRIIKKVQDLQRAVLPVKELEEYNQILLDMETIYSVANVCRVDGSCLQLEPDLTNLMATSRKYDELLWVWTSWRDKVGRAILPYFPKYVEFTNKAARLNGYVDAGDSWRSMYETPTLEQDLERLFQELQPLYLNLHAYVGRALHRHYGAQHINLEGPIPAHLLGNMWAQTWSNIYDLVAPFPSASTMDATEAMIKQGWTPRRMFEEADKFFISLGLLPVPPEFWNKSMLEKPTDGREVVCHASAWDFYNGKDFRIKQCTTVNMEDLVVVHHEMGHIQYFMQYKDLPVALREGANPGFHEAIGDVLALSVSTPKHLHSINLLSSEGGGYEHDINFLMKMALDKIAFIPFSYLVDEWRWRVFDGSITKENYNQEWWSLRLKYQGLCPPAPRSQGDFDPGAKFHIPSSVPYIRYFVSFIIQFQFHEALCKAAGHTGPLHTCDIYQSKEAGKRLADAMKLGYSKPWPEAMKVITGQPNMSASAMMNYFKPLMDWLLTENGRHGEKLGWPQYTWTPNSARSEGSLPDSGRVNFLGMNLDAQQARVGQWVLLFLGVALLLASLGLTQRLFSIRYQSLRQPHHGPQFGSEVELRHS
The experiment in a line: Inhibition of angiotensin converting enzyme in vitro (hippuryl-histidyl-leucine cleavage, Cushman and Cheung method modified by Hayakari et al.). It is filed as biochemical. Conditions: substrate hippuryl-histidyl-leucine 2 mM; potassium phosphate buffer pH 8.3, 300 mM NaCl; 25 minutes at 37° C. The protocol:
The activity of the present pyridazopyridazine derivatives in inhibiting angiotensin converting enzyme in vitro can be determined by the following test.
The method used is based on the method of Cushman and Cheung (Biochem. Pharmacol., 20, 1637-1648) incorporating the modifications introduced by Hayakari, et al. (Anal. Biochem., 84, 361-369). The substrate (hippuryl-histidyl-leucine, 2 mM) is incubated with angiotensin converting enzyme in the presence or absence of various concentrations of test substance in potassium phosphate buffer (pH 8.3; 100 mM) containing sodium chloride (300 mM) for 25 minutes at 37° C. (total […] 500 μl). The reaction is terminated by the addition of 3 ml of potassium phosphate buffer (pH 8.3; 200 mM) at 0° C. 2,4,6-Trichloro-s-triazine (3%) in 1.5 ml of dioxane is added and the mixture is agitated until the yellow chromophore has developed fully. The samples are then centrifuged to remove any precipitate which has formed. The yellow chromophore formed by the reaction of the 2,4,6-trichloro-s-triazine with free hippuric acid is measured spectrophotometrically at 382 nm. IC50 values are defined as the concentration of test substance which reduces by 50% the cleavage of hippuryl-histidylleucine by angiotensin converting enzyme under the aforementioned conditions.

`O=C(O)C1CCCN2C(=O)CC(CS)C(=O)N12` (racemic) [racemic 8-(mercaptomethyl)-octahydro-6,9-dioxopyridazo[1,2-a]pyridazine-1-carboxylic acid] came in with an IC50 of 0.0625 µM.
